Read-outs that look alike come from different tables or passages of the source.
What was measured:
[1] = Anaerobic sulfide treatment: pure oxygen versus pure oxygen + ferric MGDA; details: 10 cc pure oxygen, ~0.1 ml ~0.03 M Fe MGDA where used
[2] = Anaerobic sulfide treatment: pure oxygen versus pure oxygen + ferric MGDA and nitrate; details: for Sulfide: control 33, 10 cc pure oxygen, ~0.1 ml ~0.03 M Fe MGDA with ~8.75 mg nitrate where used
Source text: Three 300 milliliter Supelco test flasks were utilized for conducting the testing. Each flask had two valves and a single port for a septum to inject chemistry into the vessel. Each test flask was completely filled to zero headspace with wastewater from a municipal wastewater treatment facility that had been spiked with sodium sulfide. […] Test flasks were left at room temperature for two hours to assure that any oxygen within the wastewater in the test flasks was consumed prior to the study so as to mimic anaerobic wastewater conditions to initiate the study. […] Oxygen was injected simultaneously with a slight opening of a valve on the cylinder so that wastewater could could be displaced by the incoming volume of oxygen. […] The control sample flask received no injection of any ingredients. After injection of ingredients into each test flask, the flasks were placed on a New Brunswick Shaker Table and shaken for variable periods of time at ˜200 rpm's. After each test period flasks were removed and a sample extracted for sulfide testing using a La Motte Sulfide Color Comparison Test Kit. Sample for the control was taken at time zero for each study.

[3] = Treatment of sulfides in municipal wastewater using ferric chelants and hydrogen peroxide; details: 20 ppm chelant and 105.8 ppm hydrogen peroxide
[4] = system: total heterotrophic bacteria; assay: Disinfection of wastewater using chelated iron compounds; format: cell-based; details: 30 min, raw average 18,188 CFUs; for Test 3 CFUs/ml 12 ppm Fe-Chelant: chelant alone, no H2O2
Experimental: The clarified supernatant was then pored off of the top of the settled solids within the sample. The supernatant was then mixed and four samples were collected to determine untreated heterotrophic bacteria counts. […] were dissolved in distilled water at 0.4334M. Ferric chloride was added in amounts to achieve saturation of chelant sites on the respective chelants. […] Twenty individual liter samples of supernatant were then decanted from the well-mixed wastewater sample for testing. Four chelated iron products with peroxide were tested at two test concentrations and compared to samples receiving peroxide only and iron chelate only. […] Samples were then decanted to sterile sample containers containing sodium thiosulfate to stop the oxidation process and preserve the sample. Samples were then placed in a refrigerator until all samples were finished. Samples were packaged in a standard cooler with ice packs and sent via overnite delivery to ProChem Labs in Lynchburg, Va. for analysis for total heterotrophic bacteria counts.

[5] = Treatment of sulfides in municipal wastewater using ferric chelants and ozone; details: ozone ~13.4 ppm, 4 ppm ferric chelant where used; for sulfide remaining: start 13.70
Source text: The raw wastewater received a dose of 4 ppm of each of the four ferric chelants (mass calculated as chelant) just prior to addition of ozone.
Ozone addition was accomplished using an ozone generator from Ozone Solutions, Sioux Center, Iowa. The generator was capable of generating up to 2 grams per hour of ozone. Injection of ozone into the wastewater was accomplished using an injection system from Ozone Solutions called the H2O-Mini. The unit is designed to treat from 1.5 to 5.7 liters per minute of wastewater. The unit was set up to deliver 6.7 mg/minute of dissolved ozone (assumed the 80% efficiency of dissolution noted by the manufacturer) to wastewater passing the injection nozzle within the H2O-mini. Each test was designed for maximum wastewater flow through the H2O-mini (5.7 liters/min).
An objective of the study will be to treat most, but not all, of the sulfide present within the individual test samples in order to determine which treatment was more efficient than the others.
Samples were taken over twenty minutes of contact time from the recirculation vessel after ozonation. For each of the four ferric chelant studies, chelants were added to the wastewater recirculation vessels just prior to starting the injection of ozone and recirculation of the liquids. The injection of ozone was applied over the prescribed period and sampled as before in the ozone only experiment.

[6] = cited from earlier work
[7] = Nitrate addition to sewage, lab jar tests and sewage collection system test

In the case of O=O [Oxygen, oxygen], the Sulfide ([1]; Trial 1, 5 min, control 33, 300 ml flask) was 25 mg/L, the Sulfide ([1]; Trial 2, 5 min, control 31) was 25 mg/L and the Sulfide ([1]; Trial 2, 22 min, control 31) was 1.5 mg/L. The Sulfide ([2]; 5 min) was 30, the Sulfide ([2]; 10 min) was 16 and the sulfide reduced ([2]; after 10 minutes of contact) was “approximately 50%”.

For O=C([O-])CN(CC(=O)[O-])CC(=O)[O-].[Fe+3] [Fe-NTA], the “sulfide reduction after 15 minutes” value [3] was 70.2%, the “Test 1 CFUs/ml 19.8 ppm H2O2 6 ppm Fe-Chelant” value [4] was 370 CFUs/ml and the “Test 2 CFUs/ml 39.6 ppm H2O2 12 ppm Fe-Chelant” value [4] was 75 CFUs/ml. For the same compound, the “Test 3 CFUs/ml 12 ppm Fe-Chelant” value [4] was 18,300 CFUs/ml, the “Overall total percentage of sulfide reduction” value [5] was 91% and the “Overall total percentage of sulfide reduction” value ([5]; listed as ferric NTA) was 91%. The sulfide remaining ([5]; 5 min contact) was 3.40 ppm, the sulfide remaining ([5]; 10 min contact) was 1.90 ppm and the sulfide remaining ([5]; 20 min contact) was 1.30 ppm.

With O=C([O-])CN(CCO)CC(=O)[O-].[Fe+3] [Fe-HEIDA] the “Test 1 CFUs/ml 19.8 ppm H2O2 6 ppm Fe-Chelant” value [4] was 1350 CFUs/ml, the “Test 2 CFUs/ml 39.6 ppm H2O2 12 ppm Fe-Chelant” value [4] was 84 CFUs/ml and the “Test 3 CFUs/ml 12 ppm Fe-Chelant” value [4] was 16,700 CFUs/ml. The “Overall total percentage of sulfide reduction” value [5] was 60%, the “Overall total percentage of sulfide reduction” value ([5]; listed as ferric HEIDA) was 60% and the sulfide remaining ([5]; 5 min contact) was 6.80 ppm. The sulfide remaining ([5]; 10 min contact) was 6.00 ppm and the sulfide remaining ([5]; 20 min contact) was 5.40 ppm.

With O=C([O-])CN(CCN(CC(=O)[O-])CC(=O)[O-])CC(=O)[O-].[Fe+3] [Fe-EDTA] the “sulfide reduction after 15 minutes” value [3] was 60%, the “Test 1 CFUs/ml 19.8 ppm H2O2 6 ppm Fe-Chelant” value [4] was 360 CFUs/ml and the “Test 2 CFUs/ml 39.6 ppm H2O2 12 ppm Fe-Chelant” value [4] was 59 CFUs/ml. The “Test 3 CFUs/ml 12 ppm Fe-Chelant” value [4] was 18,200 CFUs/ml, the “Overall total percentage of sulfide reduction” value [5] was 64% and the “Overall total percentage of sulfide reduction” value ([5]; listed as ferric EDTA) was 64%. The sulfide remaining ([5]; 5 min contact) was 6.20 ppm, the sulfide remaining ([5]; 10 min contact) was 5.10 ppm and the sulfide remaining ([5]; 20 min contact) was 4.90 ppm.

With O=[O+][O-] [Ozone, ozone, reference compound] the “Overall total percentage of sulfide reduction” value [5] was 46%, the sulfide remaining ([5]; 5 min contact) was 8.05 ppm and the sulfide remaining ([5]; 10 min contact) was 7.50 ppm. For the same compound, the sulfide remaining ([5]; 20 min contact) was 7.40 ppm.

For S [HS^−], the “Proportion in dissolved sulfide” value ([6]; pH 5.0) is given as roughly 0.01, the “Proportion in dissolved sulfide” value ([6]; pH 6.0) is given as roughly 0.09 and the “Proportion in dissolved sulfide” value ([6]; pH 6.2) is given as roughly 0.14. The “Proportion in dissolved sulfide” value ([6]; pH 6.4) was roughly 0.20, the “Proportion in dissolved sulfide” value ([6]; pH 6.6) was roughly 0.28 and the “Proportion in dissolved sulfide” value ([6]; pH 6.8) was roughly 0.39. The “Proportion in dissolved sulfide” value ([6]; pH 7.0) was roughly 0.50, the “Proportion in dissolved sulfide” value ([6]; pH 7.2) was roughly 0.61 and the “Proportion in dissolved sulfide” value ([6]; pH 7.4) was roughly 0.72. The “Proportion in dissolved sulfide” value ([6]; pH 7.6) was roughly 0.80, the “Proportion in dissolved sulfide” value ([6]; pH 7.8) was roughly 0.86 and the “Proportion in dissolved sulfide” value ([6]; pH 8.0) was roughly 0.91. The “Proportion in dissolved sulfide” value ([6]; pH 8.2) was roughly 0.941, the “Proportion in dissolved sulfide” value ([6]; pH 8.4) was roughly 0.961 and the “Proportion in dissolved sulfide” value ([6]; pH 8.6) was roughly 0.975. For the same compound, the “Proportion in dissolved sulfide” value ([6]; pH 8.8) was roughly 0.986 and the “Proportion in dissolved sulfide” value ([6]; pH 9.0) was roughly 0.99.

With O=[N+]([O-])[O-].[Na+] [sodium nitrate] the “reduction in sewage biological oxygen demand, BOD” value [7] was no more than 70% and the “dissolved hydrogen sulfide after dosing” value ([7]; sewage containing over approximately 50 mg/L dissolved hydrogen sulfide) was less than 0.1 mg/L.

Source: US10131558B1, “Compositions, methods, and/or systems for managing sulfide” (priority 2016, dated 2018)
